Common to all, as to type: cell-based
Test [1] has as its system PC-3. In words: CTG cell survival assay, PC-3. The settings on record: Homo sapiens, PC-3 cells. The text has this:
(§1) 2. CTG Cell Survival Assay:
(§2) ATP is necessarily produced during the metabolic activities of viable cells, and there is a linear relationship between the content of ATP and the number of viable cells. Cell viability assay by CTG chemiluminescence is a general method for detecting the number of viable cells in the culture cells based on this principle. The addition of the CellTiter-Glo (CTG) reagent may induce cell lysis and produce chemiluminescent signals directly proportional to the amount of ATP in the well-plate, and thereby the cell proliferation activity in the well-plate can be measured by the reading values from the chemiluminescence.
(§3) 2.1 Experimental Materials and Instruments:
(§4) 2.4 Experimental Procedure: • 1.4.1 Cell Thawing: Cryogenic vials were removed from the liquid nitrogen container, directly immersed in a water bath at 37° C., and shaked from time to time to thaw. The cryogenic vials were removed from the water bath at 37° C., and transferred to the biosafe cabinet. Their lids were opened, and the cell suspensions were aspirated with pipettes, added to centrifuge tubes, and then added with more than 10 volumes of culture solution, mixed well; centrifuged for 5 min at 1000 rpm; the supernatant was discarded, and medium containing cell growth was added to resuspend cells. All cell suspensions were seeded to the T25 culture flasks and static cultured in an incubator at 37° C.; the culture solution were changed once on the next day, and continued to be cultured. • 2.4.2 Cell Passaging: After cells were grown to logarithmic phase and were 80%-90% confluent, cells were removed and placed in the biosafe cabinet, the old culture solution was discarded, and the cells were wetted and washed with PBS once or twice. An appropriate amount of 0.25% Trypsin-EDTA solution was added to the culture flasks. The flasks were placed in the carbon dioxide incubator at 37° C. for 2-5 min. An appropriate amount of cell growth medium containing 10% PBS was added to terminate the digestion, lightly swished, and transferred to the centrifuge tubes and centrifuged for 5 min at 1000 rpm. The cells were prepare (into cell suspensions for passaging and experimental use. • 2.4.3 Cell Plating • 2.4.3.1 A cell suspension was prepared: After cells were grown to logarithmic phase and were 80%-90% confluent, the cells were removed to the biosafe cabinet, and the old culture solution was discarded, then the cells were wetted and washed with PBS once or twice. An appropriate amount of 0.25% Trypsin-EDTA solution was added to the culture flask. The flask was placed in a carbon dioxide incubator at 37° C. for 2-5 min. An appropriate amount of the cell growth medium containing 10% PBS was added to terminate digestion, and was lightly swished. The solution was transferred to a centrifuge tube, centrifuged for 5 min at 1000 rpm, and counted. […] Secondly, 20 uM of the compound to be tested was diluted with the cell growth medium containing 0.2% DMSO in 3-fold dilution to obtain 9 concentrations, and there were 10 concentration gradients in total. • 2.4.4.3 Addition of the compounds to be tested: the prepared gradient dilution solutions of compounds to be tested were taken and added to the cell culture plate at 100 ul/well; at this point, the maximum concentration of compounds to be tested was 10 uM, and the concentration of DMSO was 0.1%.

For test [2], the system named is MV-4-11. The test is described as follows: CTG cell survival assay, MV-4-11. The settings on record: Homo sapiens, MV4-11, MV-4-11 cells.
Description: as §1, §2, §3
2.1.1 Experimental Materials: compounds to be tested, cell basal culture medium, RPMI Medium 1640 (Invitrogen, Cat#11875-093), fetal calf serum (FBS): Hyclone FETAL BOVINE SERUM DEFINED (Invitrogen, Cat#SH30070.03), antibiotics: Penicilin Streptomycin (Invitrogen, Cat#15140-122), phosphate buffer (Corning Cellgro, Cat#R21-040-CV), cell digestive solution: 0.25% Trypsin-EDTA (Invitrogen, Cat#25200-056), CTG detection kit: Promega, Cat#G7571, flat-bottom 96-well black bottom plate: NUNC, Cat#165305, T25 culture flask: NUNC, Cat#156367, T75 culture flask: NUNC, Cat#156439
2.2 Experimental Instruments: Carbon Dioxide Incubator, SANYO-MCO-20AIC, Biosafe Cabinet: BSC-1360-LIIA2, Table-Top High-Speed Refrigerated Centrifuge: SorvallST 16R, Microplate Rapid Oscillator: QB-9001, M3 Reader: SpectraMax M3, Microscope: OLYMPUS-CKX41/CKX31.
2.3 Preparation of Solutions and Reagents: Formulation of cell growth medium: RPMI Medium 1640+10% FBS+antibiotics, others: trypsin digestive solution, phosphate buffer (PBS), DMSO, CTG detection kit.
2.4 Experimental Procedure: • 1.4.1 Cell Thawing: Cryogenic vials were removed from the liquid nitrogen container, directly immersed in a water bath at 37° C., and shaked from time to time to thaw. The cryogenic vials were removed from the water bath at 37° C., and transferred to the biosafe cabinet. Their lids were opened, and the cell suspensions were aspirated with pipettes, added to centrifuge tubes, and then added with more than 10 volumes of culture solution, mixed well; centrifuged for 5 min at 1000 rpm; the supernatant was discarded, and medium containing cell growth was added to resuspend cells. All cell suspensions were seeded to the T25 culture flasks and static cultured in an incubator at 37° C.; the culture solution were changed once on the next day, and continued to be cultured. • 2.4.2 Cell Passaging: After cells were grown to logarithmic phase and were 80%-90% confluent, cells were removed and placed in the biosafe cabinet, the old culture solution was discarded, and the cells were wetted and washed with PBS once or twice. An appropriate amount of 0.25% Trypsin-EDTA solution was added to the culture flasks. The flasks were placed in the carbon dioxide incubator at 37° C. for 2-5 min. An appropriate amount of cell growth medium containing 10% PBS was added to terminate the digestion, lightly swished, and transferred to the centrifuge tubes and centrifuged for 5 min at 1000 rpm. The cells were prepare (into cell suspensions for passaging and experimental use. • 2.4.3 Cell Plating • 2.4.3.1 A cell suspension was prepared: After cells were grown to logarithmic phase and were 80%-90% confluent, the cells were removed to the biosafe cabinet, and the old culture solution was discarded, then the cells were wetted and washed with PBS once or twice. An appropriate amount of 0.25% Trypsin-EDTA solution was added to the culture flask. The flask was placed in a carbon dioxide incubator at 37° C. for 2-5 min. An appropriate amount of the cell growth medium containing 10% PBS was added to terminate digestion, and was lightly swished. The solution was transferred to a centrifuge tube, centrifuged for 5 min at 1000 rpm, and counted. […]

Test [3] deals with SK-BR3/BT474. In words: CTG cell survival assay, SK-BR3/BT474. Particulars: SK-BR3/BT474 cells.
Description: as §1, §2, §3, §4

The structures appear in SMILES notation. Some results are limits rather than exact numbers.

In general, EC50 refers to the concentration at which the effect is half-maximal. Higher therefore signals lower potency in that assay.

Turning to `Cn1cc(-c2ccc(-c3ccc4ncc5c(c4c3)n(C3CC4CCC(C3)N4S(C)(=O)=O)c(=O)n5C)cn2)nn1` (centres unmarked) [Example 61, 3-methyl-8-(6-(1-methyl-1H-1,2,3-triazol-4-yl)pyridin-3-yl)-1-(8-(methanesulfonyl)-8-azabicyclo[3.2.1]octan-3-yl)-1H-imidazo[4,5-c]quinolin-2(3H)-one], the results for the EC50 in test [1], in test [2] and in test [3] were less than 10 nM, less than 20 nM and less than 10 nM, respectively.

On to `Cn1cc(-c2ccc(-c3ccc4ncc5c(c4c3)n(-c3ccc(C(C)(C)C(N)=O)cc3)c(=O)n5C)cn2)cn1` [Example 40, 2-methyl-2-(4-(3-methyl-8-(6-(1-methyl-1H-pyrazol-4-yl)pyridin-3-yl)-2-oxo-2,3-dihydro-1H-imidazo[4,5-c]quinolin-1-yl)phenyl)propionamide], for which the half-maximal effective concentration (EC50) in test [1] was 10 nM; in test [2] it was 30 nM; in test [3], 25 nM.

Compound `Cn1cnc(-c2ccc(-c3ccc4ncc5c(c4c3)n([C@H]3CCN(S(C)(=O)=O)C3)c(=O)n5C)cn2)n1` [Example 48, (S)-3-methyl-8-(6-(1-methyl-1H-1,2,4-triazol-3-yl)pyridin-3-yl)-1-(1-(methanesulfonyl)pyrrolidin-3-yl)-1H-imidazo[4,5-c]quinolin-2(3H)-one] yielded an EC50 in test [3] of less than 100 nM.

Compound `Cn1cc(-c2ccc(-c3ccc4ncc5c(c4c3)n(C3CN(S(C)(=O)=O)C3)c(=O)n5C)cn2)cn1` [Example 64, 3-methyl-8-(6-(1-methyl-1H-pyrazol-4-yl)pyridin-3-yl)-1-(1-(methanesulfonyl)azetidin-3-yl)-1H-imidazo[4,5-c]quinolin-2(3H)-one] yielded an EC50 in test [3] of 200 nM.

As for `Cn1cc(-c2ccc(-c3ccc4ncc5c(c4c3)n([C@H]3CCN(S(C)(=O)=O)C3)c(=O)n5C)cn2)nn1` [Example 45, (S)-3-methyl-8-(6-(1-methyl-1H-1,2,3-triazol-4-yl)pyridin-3-yl)-1-(1-(methanesulfonyl)pyrrolidin-3-yl)-1H-imidazo quinolin-2(3H)-one], the 50% effective concentration (EC50) in test [1] was less than 10 nM; in test [2], less than 20 nM; in test [3] it was less than 20 nM.

For `Cn1cc(-c2ccc(-c3ccc4ncc5c(c4c3)n([C@@H]3CCCN(S(=O)(=O)C(F)(F)F)C3)c(=O)n5C)cn2)cn1` [Example 56, (R)-3-methyl-8-(6-(1-methyl-1H-pyrazol-4-yl)pyridin-3-yl)-1-(1-((trifluoromethyl)sulfonyl)piperidin-3-yl)-1H-imidazo[4,5-c]quinolin-2(3H)-one], the 50% effective concentration (EC50) in test [1] is less than 30 nM; in test [2], 60 nM; in test [3], 70 nM.

Turning to `Cn1cc(-c2ccc(-c3ccc4ncc5c(c4c3)n([C@@H]3CCCN(S(=O)(=O)C4CC4)C3)c(=O)n5C)cn2)cn1` [Example 53, (R)-1-(1-(cyclopropylsulfonyl)piperidin-3-yl)-3-methyl-8-(6-(1-methyl-1H-pyrazol-4-yl)pyridin-3-yl)-1H-imidazo[4,5-c]quinolin-2(3H)-one], the EC50 in test [1] was less than 20 nM; in test [3], 100 nM.

On to `Cn1cc(-c2ccc(-c3ccc4ncc5c(c4c3)n(C3CC4CCC(C3)N4S(C)(=O)=O)c(=O)n5C)cn2)cn1` (centres unmarked) [Example 62, 3-methyl-8-(6-(1-methyl-1H-pyrazol-4-yl)pyridin-3-yl)-1-(8-(methanesulfonyl)-8-azabicyclo[3.2.1]octan-3-yl)-1H-imidazo[4,5-c]quinolin-2(3H)-one], for which the EC50 in test [1] is less than 10 nM; in test [2], less than 20 nM; in test [3], less than 20 nM.

Turning to `Cn1cc(-c2ccc(-c3ccc4ncc5c(c4c3)n([C@@H]3CCCN(S(N)(=O)=O)C3)c(=O)n5C)cn2)cn1` [Example 54, (R)-3-(3-methyl-8-(6-(1-methyl-1H-pyrazol-4-yl)pyridin-3-yl)-2-oxo-2,3-dihydro-1H-imidazo[4,5-c]quinolin-1-yl)piperidine-1-sulfamide], it took 70 nM to reach a half-maximal effect in test [3] (EC50).

In turn, `Cn1cc(-c2ccc(-c3ccc4ncc5c(c4c3)n([C@@H]3CCCN(S(C)(=O)=O)C3)c(=O)n5C)cn2)nn1` [Example 58, (R)-3-methyl-8-(6-(1-methyl-1H-1,2,3-triazol-4-yl)pyridin-3-yl)-1-(1-(methanesulfonyl)piperidin-3-yl)-1H-imidazo[4,5-c]quinolin-2(3H)-one] showed a 50% effective concentration (EC50) in test [2] of 60 nM.

For the compound `Cn1cc(-c2ccc(-c3ccc4ncc5c(c4c3)n([C@H]3CC[C@@H](C(=O)O)CC3)c(=O)n5C)cn2)cn1` [Example 35, (1s,4s)-4-(3-methyl-8-(6-(1-methyl-1H-pyrazol-4-yl)pyridin-3-yl)-2-oxo-2,3-dihydro-1H-imidazo[4,5-c]quinolin-1-yl)cyclohexanecarboxylic acid], the EC50 in test [2] is less than 500 nM; in test [3], less than 200 nM.

Turning to `Cn1cc(-c2ccc(-c3ccc4ncc5c(c4c3)n(-c3ccc(C(C)(C)C(=O)O)cc3)c(=O)n5C)cn2)cn1` [Example 41, 2-methyl-2-(4-(3-methyl-8-(6-(1-methyl-1H-pyrazol-4-yl)pyridin-3-yl)-2-oxo-2,3-dihydro-1H-imidazo[4,5-c]quinolin-1-yl)phenyl)propionic acid], the EC50 in test [2] is 100 nM.

For `Cn1c(=O)n([C@H]2CCN(S(C)(=O)=O)C2)c2c3cc(-c4ccc(-n5ccnn5)nc4)ccc3ncc21` [Example 46, (S)-8-(6-(1H-1,2,3-triazol-1-yl)pyridin-3-yl)-3-methyl-1-(1-(methanesulfonyl)pyrrolidin-3-yl)-1H-imidazo[4,5-c]quinolin-2(3H)-one], the EC50 in test [3] stood at 400 nM.

Regarding `Cn1cc(-c2ccc(-c3ccc4ncc5c(c4c3)n(CCNS(C)(=O)=O)c(=O)n5C)cn2)cn1` [Example 63, N-(2-(3-methyl-8-(6-(1-methyl-1H-pyrazol-4-yl)pyridin-3-yl)-2-oxo-2,3-dihydro-1H-imidazo[4,5-c]quinolin-1-yl)ethyl)methanesulfonamide], in test [3], the half-maximal effective concentration (EC50) is 300 nM.
